Experimental data as given in paper PMC4774911, “Biochemical Screening of Five Protein Kinases from Plasmodium falciparum against 14,000 Cell-Active Compounds” (PLoS ONE, 2016).
Where “and” joins values, the source holds several entries; their conditions need not be identical. Equal entries are not always repeated.

Experiments:
Assay in all cases: biochemical
CSNK2A1 = CSNK2A1 (Homo sapiens, UniProt P68400)
TNIK = TNIK (Homo sapiens, UniProt Q9UKE5)
PIK3R4 = PIK3R4 (Homo sapiens, UniProt Q99570)
PRKCA = PRKCA (Homo sapiens, UniProt P17252)
OXSR1 = OXSR1 (Homo sapiens, UniProt O95747)
Sequence of OXSR1 (O95747 whole entry): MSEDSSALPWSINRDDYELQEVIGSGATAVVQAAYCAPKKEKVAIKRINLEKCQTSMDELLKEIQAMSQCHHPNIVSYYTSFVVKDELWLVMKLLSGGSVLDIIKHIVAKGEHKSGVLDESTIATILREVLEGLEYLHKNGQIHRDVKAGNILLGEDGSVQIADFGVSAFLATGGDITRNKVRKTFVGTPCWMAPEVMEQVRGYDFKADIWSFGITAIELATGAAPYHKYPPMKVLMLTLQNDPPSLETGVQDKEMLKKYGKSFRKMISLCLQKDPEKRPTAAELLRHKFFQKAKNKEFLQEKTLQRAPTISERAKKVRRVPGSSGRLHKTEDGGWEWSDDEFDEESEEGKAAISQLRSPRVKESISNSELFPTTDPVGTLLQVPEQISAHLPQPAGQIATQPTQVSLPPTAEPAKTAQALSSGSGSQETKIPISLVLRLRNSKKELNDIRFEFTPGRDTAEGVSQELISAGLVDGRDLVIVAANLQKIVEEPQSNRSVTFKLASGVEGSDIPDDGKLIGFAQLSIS

ACVR1 = molecular target: T1, ACVR1 (Homo sapiens, UniProt Q04771)
T1 sequence (Q04771 1-509): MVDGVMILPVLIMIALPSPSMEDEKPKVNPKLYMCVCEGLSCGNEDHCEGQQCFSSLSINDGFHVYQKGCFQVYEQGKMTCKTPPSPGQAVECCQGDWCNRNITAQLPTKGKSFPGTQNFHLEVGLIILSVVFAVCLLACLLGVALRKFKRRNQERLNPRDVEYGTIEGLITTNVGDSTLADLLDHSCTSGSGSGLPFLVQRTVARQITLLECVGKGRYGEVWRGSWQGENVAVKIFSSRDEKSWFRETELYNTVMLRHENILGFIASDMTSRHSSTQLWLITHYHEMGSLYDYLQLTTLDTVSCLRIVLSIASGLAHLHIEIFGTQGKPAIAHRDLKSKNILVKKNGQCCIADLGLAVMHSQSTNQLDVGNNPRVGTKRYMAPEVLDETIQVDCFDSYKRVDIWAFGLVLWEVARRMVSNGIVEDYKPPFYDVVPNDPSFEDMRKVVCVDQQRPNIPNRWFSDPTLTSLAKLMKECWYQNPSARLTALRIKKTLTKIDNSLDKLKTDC

ACVR1B = molecular target: T2, ACVR1B (Homo sapiens, UniProt P36896)
T2 sequence (P36896 1-505): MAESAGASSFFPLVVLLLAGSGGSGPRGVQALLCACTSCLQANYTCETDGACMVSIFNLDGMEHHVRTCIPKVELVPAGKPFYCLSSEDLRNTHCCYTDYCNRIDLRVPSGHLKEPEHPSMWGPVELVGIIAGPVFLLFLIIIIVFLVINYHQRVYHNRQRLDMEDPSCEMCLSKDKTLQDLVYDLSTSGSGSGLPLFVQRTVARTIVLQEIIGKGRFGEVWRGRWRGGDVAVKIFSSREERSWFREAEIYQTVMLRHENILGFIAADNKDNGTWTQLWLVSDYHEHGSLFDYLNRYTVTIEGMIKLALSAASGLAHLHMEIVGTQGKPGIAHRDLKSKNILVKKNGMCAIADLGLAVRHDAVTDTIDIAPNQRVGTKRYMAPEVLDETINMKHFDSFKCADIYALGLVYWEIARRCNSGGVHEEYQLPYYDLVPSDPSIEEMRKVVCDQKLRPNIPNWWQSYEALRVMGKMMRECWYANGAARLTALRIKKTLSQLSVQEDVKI

LIMK1 = LIMK1 (Homo sapiens, UniProt P53667)
MAPK3 = MAPK3 (Homo sapiens, UniProt P27361)
Sequence of MAPK3 (P27361 whole entry): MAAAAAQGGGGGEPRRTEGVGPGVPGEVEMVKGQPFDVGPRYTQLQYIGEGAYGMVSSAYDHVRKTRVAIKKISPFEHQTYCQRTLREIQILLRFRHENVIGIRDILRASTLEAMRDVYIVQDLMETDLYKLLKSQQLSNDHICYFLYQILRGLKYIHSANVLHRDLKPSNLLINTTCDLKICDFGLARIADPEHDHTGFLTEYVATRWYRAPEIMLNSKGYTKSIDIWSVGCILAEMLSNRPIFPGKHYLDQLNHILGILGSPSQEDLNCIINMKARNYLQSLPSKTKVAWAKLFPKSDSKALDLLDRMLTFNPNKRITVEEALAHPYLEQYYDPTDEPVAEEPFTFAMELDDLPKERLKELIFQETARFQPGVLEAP

CABC1 = CABC1 (Homo sapiens, UniProt Q8NI60)
GSK3A = GSK3A (Homo sapiens, UniProt P49840)
NTRK1 = NTRK1 (Homo sapiens, UniProt P04629)
Sequence of NTRK1 (P04629 whole entry): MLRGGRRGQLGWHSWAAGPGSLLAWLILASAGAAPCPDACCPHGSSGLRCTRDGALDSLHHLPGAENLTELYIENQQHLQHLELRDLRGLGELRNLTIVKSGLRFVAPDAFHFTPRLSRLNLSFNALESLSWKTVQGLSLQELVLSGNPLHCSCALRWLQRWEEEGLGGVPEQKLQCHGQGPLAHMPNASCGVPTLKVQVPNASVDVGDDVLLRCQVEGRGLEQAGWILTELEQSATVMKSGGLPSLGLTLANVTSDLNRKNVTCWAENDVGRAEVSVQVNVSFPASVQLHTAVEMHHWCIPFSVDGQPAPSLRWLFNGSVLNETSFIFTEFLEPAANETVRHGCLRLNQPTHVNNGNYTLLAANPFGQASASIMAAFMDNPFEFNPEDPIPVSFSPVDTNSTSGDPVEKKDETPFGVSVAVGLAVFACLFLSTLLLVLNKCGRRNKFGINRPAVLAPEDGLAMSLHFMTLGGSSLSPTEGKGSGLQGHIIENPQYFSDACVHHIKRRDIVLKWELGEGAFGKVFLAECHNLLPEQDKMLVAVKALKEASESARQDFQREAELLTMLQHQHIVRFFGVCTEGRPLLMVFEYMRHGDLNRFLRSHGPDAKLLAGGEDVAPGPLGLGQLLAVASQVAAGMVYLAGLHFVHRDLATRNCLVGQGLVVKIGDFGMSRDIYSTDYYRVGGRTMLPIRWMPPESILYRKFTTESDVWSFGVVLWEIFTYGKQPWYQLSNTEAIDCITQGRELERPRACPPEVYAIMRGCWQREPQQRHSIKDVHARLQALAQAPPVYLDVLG

PIP4K2A = molecular target: T3, PIP4K2A (Homo sapiens, UniProt P48426)
T3 sequence (P48426 1-406): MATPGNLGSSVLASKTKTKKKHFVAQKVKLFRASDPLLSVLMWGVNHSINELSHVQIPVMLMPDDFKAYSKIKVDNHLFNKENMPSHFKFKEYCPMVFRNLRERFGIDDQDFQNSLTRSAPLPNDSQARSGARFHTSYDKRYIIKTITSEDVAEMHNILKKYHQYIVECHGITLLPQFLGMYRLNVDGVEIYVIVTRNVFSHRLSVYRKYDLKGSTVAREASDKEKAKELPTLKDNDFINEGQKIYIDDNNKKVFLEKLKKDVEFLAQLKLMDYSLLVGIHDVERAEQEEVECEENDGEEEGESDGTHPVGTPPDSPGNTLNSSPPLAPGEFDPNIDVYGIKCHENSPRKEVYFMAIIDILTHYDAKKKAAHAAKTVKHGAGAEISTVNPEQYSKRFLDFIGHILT

CRKRS = CRKRS (Homo sapiens, UniProt Q9NYV4)
Sequence of CRKRS (Q9NYV4 whole entry): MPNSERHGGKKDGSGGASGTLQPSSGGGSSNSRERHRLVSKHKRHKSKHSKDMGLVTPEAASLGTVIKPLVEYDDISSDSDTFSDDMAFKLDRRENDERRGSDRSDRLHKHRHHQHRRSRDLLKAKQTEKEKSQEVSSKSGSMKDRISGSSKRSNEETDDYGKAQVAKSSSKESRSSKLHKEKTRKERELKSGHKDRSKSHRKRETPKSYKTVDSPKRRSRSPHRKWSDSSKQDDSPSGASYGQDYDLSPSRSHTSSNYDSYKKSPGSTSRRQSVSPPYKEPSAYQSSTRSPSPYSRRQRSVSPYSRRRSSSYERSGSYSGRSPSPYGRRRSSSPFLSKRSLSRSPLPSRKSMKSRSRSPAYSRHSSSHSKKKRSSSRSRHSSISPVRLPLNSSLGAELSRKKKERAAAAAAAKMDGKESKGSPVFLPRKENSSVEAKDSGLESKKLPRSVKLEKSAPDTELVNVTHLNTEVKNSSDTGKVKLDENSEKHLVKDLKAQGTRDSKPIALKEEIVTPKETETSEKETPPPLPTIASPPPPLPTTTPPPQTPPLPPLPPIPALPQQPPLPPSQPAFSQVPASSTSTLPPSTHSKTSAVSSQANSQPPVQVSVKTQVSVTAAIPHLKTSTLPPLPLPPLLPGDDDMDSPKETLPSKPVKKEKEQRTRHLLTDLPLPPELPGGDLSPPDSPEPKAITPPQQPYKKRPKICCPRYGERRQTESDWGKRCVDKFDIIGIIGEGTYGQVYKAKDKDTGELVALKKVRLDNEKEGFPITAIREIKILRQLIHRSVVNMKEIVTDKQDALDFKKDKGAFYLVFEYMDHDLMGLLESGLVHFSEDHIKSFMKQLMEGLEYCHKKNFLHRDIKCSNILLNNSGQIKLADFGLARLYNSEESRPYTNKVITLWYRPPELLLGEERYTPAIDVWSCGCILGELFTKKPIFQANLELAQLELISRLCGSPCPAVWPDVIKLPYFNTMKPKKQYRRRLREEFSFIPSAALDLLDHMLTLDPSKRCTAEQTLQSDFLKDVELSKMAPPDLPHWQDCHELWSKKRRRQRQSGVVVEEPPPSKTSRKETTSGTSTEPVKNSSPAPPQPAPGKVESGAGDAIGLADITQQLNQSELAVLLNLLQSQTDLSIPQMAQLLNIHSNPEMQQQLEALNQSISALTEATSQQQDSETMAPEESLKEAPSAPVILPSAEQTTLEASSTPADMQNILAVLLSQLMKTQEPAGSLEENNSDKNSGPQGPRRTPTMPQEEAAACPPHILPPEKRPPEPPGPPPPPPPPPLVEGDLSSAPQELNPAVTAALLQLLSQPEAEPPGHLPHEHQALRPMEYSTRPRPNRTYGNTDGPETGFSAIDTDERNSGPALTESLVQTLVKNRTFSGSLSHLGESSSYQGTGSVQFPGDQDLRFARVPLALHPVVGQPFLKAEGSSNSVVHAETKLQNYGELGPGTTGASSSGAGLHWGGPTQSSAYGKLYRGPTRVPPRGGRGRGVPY

PRKX = molecular target: T4, PRKX (Homo sapiens, UniProt P51817)
T4 sequence (P51817 1-358): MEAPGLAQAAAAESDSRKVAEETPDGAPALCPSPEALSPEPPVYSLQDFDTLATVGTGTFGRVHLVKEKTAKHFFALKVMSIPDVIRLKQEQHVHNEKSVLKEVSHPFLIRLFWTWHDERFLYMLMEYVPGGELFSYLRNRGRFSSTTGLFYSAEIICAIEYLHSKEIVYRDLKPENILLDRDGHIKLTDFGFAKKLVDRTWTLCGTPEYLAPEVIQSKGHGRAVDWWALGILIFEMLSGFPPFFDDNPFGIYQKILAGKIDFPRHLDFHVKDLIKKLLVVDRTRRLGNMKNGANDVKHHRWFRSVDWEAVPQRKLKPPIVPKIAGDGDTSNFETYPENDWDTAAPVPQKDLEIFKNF

PTK2B = PTK2B (Homo sapiens, UniProt Q14289)
CDK7 = CDK7 (Homo sapiens, UniProt P50613)
Sequence of CDK7 (P50613 whole entry): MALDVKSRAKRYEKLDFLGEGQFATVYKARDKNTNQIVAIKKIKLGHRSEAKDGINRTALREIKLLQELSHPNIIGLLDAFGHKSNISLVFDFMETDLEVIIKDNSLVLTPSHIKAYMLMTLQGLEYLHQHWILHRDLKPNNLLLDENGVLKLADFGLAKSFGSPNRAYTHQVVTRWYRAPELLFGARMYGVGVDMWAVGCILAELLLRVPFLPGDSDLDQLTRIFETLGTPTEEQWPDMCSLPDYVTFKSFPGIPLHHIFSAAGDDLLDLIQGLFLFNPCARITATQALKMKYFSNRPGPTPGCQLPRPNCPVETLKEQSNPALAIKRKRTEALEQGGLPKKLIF

CDC2 = CDC2 (Homo sapiens, UniProt P06493)
Sequence of CDC2 (P06493 whole entry): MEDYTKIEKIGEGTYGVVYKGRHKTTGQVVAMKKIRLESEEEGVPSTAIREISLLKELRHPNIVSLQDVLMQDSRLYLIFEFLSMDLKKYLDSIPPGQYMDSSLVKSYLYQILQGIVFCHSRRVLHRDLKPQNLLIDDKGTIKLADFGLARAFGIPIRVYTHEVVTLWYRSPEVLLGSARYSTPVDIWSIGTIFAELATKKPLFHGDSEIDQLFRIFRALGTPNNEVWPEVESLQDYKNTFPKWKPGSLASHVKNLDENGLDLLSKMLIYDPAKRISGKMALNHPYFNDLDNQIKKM

CDK2 = CDK2 (Homo sapiens, UniProt P24941)
AURKB = AURKB (Homo sapiens, UniProt Q96GD4)

Sequence of CSNK2A1 (P68400 whole entry): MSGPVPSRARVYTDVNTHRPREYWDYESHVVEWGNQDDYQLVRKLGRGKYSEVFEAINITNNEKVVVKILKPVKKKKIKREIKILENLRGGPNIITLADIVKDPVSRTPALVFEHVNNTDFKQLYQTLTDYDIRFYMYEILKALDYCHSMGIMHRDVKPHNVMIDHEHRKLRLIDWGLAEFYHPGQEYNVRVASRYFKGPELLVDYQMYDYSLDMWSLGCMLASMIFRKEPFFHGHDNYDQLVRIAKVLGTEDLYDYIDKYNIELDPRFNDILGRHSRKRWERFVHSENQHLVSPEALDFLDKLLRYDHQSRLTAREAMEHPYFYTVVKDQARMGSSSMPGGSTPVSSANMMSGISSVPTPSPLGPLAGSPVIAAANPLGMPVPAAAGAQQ

In the case of `CN(C)CC(O)COc1ccc(Nc2ncc([N+](=O)[O-])c(Nc3ccccc3O)n2)cc1.O=C(O)C(F)(F)F` (stereo not drawn) [TCMDC-141399], the IC50 (CSNK2A1) is reported as 92 nM, the IC50 (TNIK) is reported as 820 nM and the IC50 (PIK3R4) is reported as > 20000 nM. For the same compound, the IC50 (PRKCA) was > 20000 nM, the IC50 (OXSR1) was > 20000 nM and the IC50 (ACVR1) was > 20000 nM. For the same compound, the IC50 (ACVR1B) was > 20000 nM, the IC50 (LIMK1) was > 20000 nM and the IC50 (MAPK3) was > 20000 nM. The IC50 (CABC1) was > 20000 nM, the IC50 (GSK3A) was 6700 nM and 7400 nM and the IC50 (NTRK1) was > 20000 nM. For the same compound, the IC50 (PIP4K2A) was 1200 nM and 950 nM, the IC50 (CRKRS) was 2100 nM and the IC50 (PRKX) was > 20000 nM. The IC50 (PTK2B) was 350 nM and 480 nM, the IC50 (CDK7) was 1800 nM and 5800 nM and the IC50 (CDC2) was > 20000 nM. For the same compound, the IC50 (CDK2) was > 20000 nM and the IC50 (AURKB) was 4200 nM.
`Cl.NCC1(c2nc(-c3ccc(Cl)c(O)c3)c(-c3ccncc3)[nH]2)CCCCC1` [TCMDC-141154] was tested, and the IC50 (CSNK2A1) was > 20000 nM, the IC50 (TNIK) was 290 nM and the IC50 (PIK3R4) was > 20000 nM. For the same compound, the IC50 (PRKCA) was > 20000 nM, the IC50 (OXSR1) was > 20000 nM and the IC50 (ACVR1) was > 20000 nM. For the same compound, the IC50 (ACVR1B) was 590 nM, the IC50 (LIMK1) was > 20000 nM and the IC50 (MAPK3) was > 20000 nM. The IC50 (CABC1) was > 20000 nM, the IC50 (GSK3A) was > 20000 nM and the IC50 (NTRK1) was > 20000 nM. For the same compound, the IC50 (PIP4K2A) was > 20000 nM, the IC50 (CRKRS) was > 20000 nM and the IC50 (PRKX) was > 20000 nM. The IC50 (PTK2B) was > 20000 nM, the IC50 (CDK7) was > 20000 nM and the IC50 (CDC2) was > 20000 nM. The IC50 (CDK2) was > 20000 nM and the IC50 (AURKB) was > 20000 nM.
`CN1CCN(c2ccc(Nc3ncc(C#N)c(Nc4ccccc4C(N)=O)n3)cc2)CC1.Cl` [TCMDC-134116] was tested, and the IC50 (CSNK2A1) was ≤ 32 nM and 34 nM, the IC50 (TNIK) was 200 nM and 250 nM and the IC50 (PIK3R4) was 2200 nM. The IC50 (PRKCA) was 740 nM, the IC50 (OXSR1) was 81 nM and 130 nM and the IC50 (ACVR1) was 8200 nM. For the same compound, the IC50 (ACVR1B) was 4000 nM, the IC50 (LIMK1) was 220 nM and the IC50 (MAPK3) was > 20000 nM. For the same compound, the IC50 (CABC1) was > 20000 nM, the IC50 (GSK3A) was 1400 nM and 1100 nM and the IC50 (NTRK1) was 2200 nM and 1500 nM. For the same compound, the IC50 (PIP4K2A) was 1100 nM and 1400 nM, the IC50 (CRKRS) was 650 nM and the IC50 (PRKX) was 1300 nM. For the same compound, the IC50 (PTK2B) was 77 nM and 97 nM, the IC50 (CDK7) was 530 nM and 620 nM and the IC50 (CDC2) was 1500 nM. For the same compound, the IC50 (CDK2) was 360 nM and 350 nM and the IC50 (AURKB) was 40 nM and 64 nM.
